Structures are written as SMILES. pIC50: −log10 of the molar value.

Broadly, the pIC50 is −log10 of the IC50, conventionally taken in molar units. Higher therefore signals a low IC50.

The test concerns the target MMP-13 (Homo sapiens, UniProt P45452). Put plainly: EnzoLyte 520 Generic MMP Assay Kit, 5-FAM/QXL520 FRET peptide substrate. The class given is biochemical. An excerpt:
The EnzoLyte™ 520 Generic MMP Assay Kit (AnaSpec Inc.) can detect the activity of several MMPs including MMP-1, 2, 3, 7, 8, 9, 13, and 14. This kit uses a 5-FAM/QXL™520 fluorescence resonance energy transfer (FRET) peptide as an MMP substrate.
Molecule `CNC(=O)[C@@H](NC(=O)c1ccc(-c2cccc(CNC(=O)C3CNCCO3)c2)o1)C(C)C` (stereo partly drawn) [N-[3-(5-{[(1S)-2-methyl-1-(methylcarbamoyl)propyl]carbamoyl}-2-furyl)benzyl]morpholine-2-carboxamide] had a pIC50 of 6.43.

Molecule `CNC(=O)[C@@H](NC(=O)c1ccc(-c2cccc(CNC(=O)c3cccnc3)c2)o1)C(C)C` [N-[3-(5-{[(1S)-2-methyl-1-(methylcarbamoyl)propyl]carbamoyl}-2-furyl)benzyl]nicotinamide] showed a pIC50 of 6.45.

The molecule `CNC(=O)[C@@H](NC(=O)c1ccc(-c2cccc(CNC(=O)C3CCCCN3)c2)o1)C(C)C` (stereo partly drawn) [N-[3-(5-{[(1S)-2-methyl-1-(methylcarbamoyl)propyl]carbamoyl}-2-furyl)benzyl]piperidine-2-carboxamide] had a pIC50 of 6.57.

Regarding `CNC(=O)[C@@H](NC(=O)c1ccc(-c2cccc(CNC(=O)C3CCCNC3)c2)o1)C(C)C` (stereo partly drawn) [N-[3-(5-{[(1S)-2-methyl-1-(methylcarbamoyl)propyl]carbamoyl}-2-furyl)benzyl]piperidine-3-carboxamide], the pIC50 was 6.37.

With `CNC(=O)[C@@H](NC(=O)c1ccc(-c2cccc(CNC(=O)c3cnccn3)c2)o1)C(C)C` [N-[3-(5-{[(1S)-2-methyl-1-(methylcarbamoyl)propyl]carbamoyl}-2-furyl)benzyl]pyrazine-2-carboxamide], the pIC50 is 7.49. This pIC50 is 1.12 log units higher than that of the molecule before.

With `CNC(=O)[C@@H](NC(=O)c1ccc(-c2cccc(CNC(=O)c3cccnn3)c2)o1)C(C)C` [N-[3-(5-{[(1S)-2-methyl-1-(methylcarbamoyl)propyl]carbamoyl}-2-furyl)benzyl]pyridazine-3-carboxamide], the negative logarithm of the IC50 (pIC50) was 6.38.

`CNC(=O)[C@@H](NC(=O)c1ccc(-c2cccc(CNC(=O)c3ccnnc3)c2)o1)C(C)C` [N-[3-(5-{[(1S)-2-methyl-1-(methylcarbamoyl)propyl]carbamoyl}-2-furyl)benzyl]pyridazine-4-carboxamide]: the pIC50 is 6.74.

`CNC(=O)[C@@H](NC(=O)c1ccc(-c2cccc(CNC(=O)C3CCCCO3)c2)o1)C(C)C` (stereo partly drawn) [N-[3-(5-{[(1S)-2-methyl-1-(methylcarbamoyl)propyl]carbamoyl}-2-furyl)benzyl]tetrahydro-2H-pyran-2-carboxamide] gave a pIC50 of 7.00.

`CNC(=O)[C@@H](NC(=O)c1ccc(-c2cccc(CNC(=O)C3CCOCC3)c2)o1)C(C)C` [N-[3-(5-{[(1S)-2-methyl-1-(methylcarbamoyl)propyl]carbamoyl}-2-furyl)benzyl]tetrahydro-2H-pyran-4-carboxamide] showed a pIC50 of 6.47.

Molecule `CNC(=O)[C@@H](NC(=O)c1ccc(-c2ccc(NC(=O)c3cc4ccccc4o3)cc2)o1)C1CCCCC1` [N-[4-(5-{[(1S)-1-cyclohexyl-2-(methylamino)-2-oxoethyl]carbamoyl}furan-2-yl)phenyl]-1-benzofuran-2-carboxamide] had a negative-log IC50 (pIC50) of 6.30.

`CNC(=O)[C@@H](NC(=O)c1ccc(-c2ccc(NC(=O)c3cn(C)cn3)cc2)o1)C1CCCCC1` [N-[4-(5-{[(1S)-1-cyclohexyl-2-(methylamino)-2-oxoethyl]carbamoyl}furan-2-yl)phenyl]-1-methyl-1H-imidazole-4-carboxamide]: the pIC50 is 6.85. Against the preceding molecule, the pIC50 is 0.55 log units higher.

For the molecule `CNC(=O)[C@@H](NC(=O)c1ccc(-c2ccc(NC(=O)c3ccn(C)n3)cc2)o1)C1CCCCC1` [N-[4-(5-{[(1S)-1-cyclohexyl-2-(methylamino)-2-oxoethyl]carbamoyl}furan-2-yl)phenyl]-1-methyl-1H-pyrazole-3-carboxamide], the pIC50 was 7.51.

Turning to `CNC(=O)[C@@H](NC(=O)c1ccc(-c2ccc(NC(=O)c3cnn(C)c3)cc2)o1)C1CCCCC1` [N-[4-(5-{[(1S)-1-cyclohexyl-2-(methylamino)-2-oxoethyl]carbamoyl}furan-2-yl)phenyl]-1-methyl-1H-pyrazole-4-carboxamide], the pIC50 was 6.74.
